# Test results published in US10633407B2, “14-membered ketolides and methods of their preparation and use” (President and Fellows of Harvard College, priority 2014, dated 2020).
# Read-outs that look alike come from different tables or passages of the source.
# Experiments:
# Assay in all cases: CLSI broth dilution MIC determination
# Assay type in all cases: cell-based
# E. coli ATCC 25922 = test system: E. coli ATCC 25922
# Outline: (§1)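 MICs were measured by broth dilution following CLSI standard procedures. Azithromycin and solithromycin served as control macrolides in many cases. Macrolide-resistance genotypes in the panel may be constitutive or inducible.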
# E. coli CTX-M-14 = test system: E. coli CTX-M-14
# Outline: as §1
# E. coli NDM-1 = test system: E. coli NDM-1
# Outline: as §1
# E. coli TEM-1 = test system: E. coli TEM-1
# Outline: as §1
# H. influenzae ATCC49247 = test system: H. influenzae ATCC49247
# Outline: as §1
# K. pneumoniae TEM-10 = test system: K. pneumoniae TEM-10
# S. aureus ATCC 29213 = test system: S. aureus ATCC 29213
# Outline: as §1
# S. aureus MRSA: USA100 = test system: S. aureus MRSA: USA100
# Outline: as §1
# S. aureus MRSA: USA300 = test system: S. aureus MRSA: USA300
# Outline: as §1
# S. aureus USA600, GISA = test system: S. aureus USA600, GISA
# Outline: as §1
# S. aureus erm A genotype = test system: S. aureus erm A genotype
# Outline: as §1
# S. pneumoniae ATCC 49619 = test system: S. pneumoniae ATCC 49619
# Outline: as §1
# [1] = test system: S. pneumoniae erm B + mef A genotype
# Outline: as §1
# [2] = test system: S. pneumoniae erm B + tet(M,O) genotype; conditions: Streptococcus pneumoniae
# Outline: as §1
# [3] = test system: S. pneumoniae mef A genotype (first strain so labelled)
# Outline: as §1
# [4] = test system: S. pneumoniae mef A genotype (second strain so labelled)
# Outline: as §1
# S. pyogenes ATCC 19615 = test system: S. pyogenes ATCC 19615
# [5] = test system: S. pyogenes Macrolide-resistant
# E. faecalis ATCC 29212 = test system: E. faecalis ATCC 29212
# [6] = test system: E. faecalis Vancomycin-resistant
# A. baumannii ATCC 19606 = test system: A. baumannii ATCC 19606
# [7] = test system: A. baumannii imipenem-resistant
# [8] = test system: A. baumannii chromosomal class C
# A. baumannii IMP-4 = test system: A. baumannii IMP-4
# K. pneumoniae ATCC 10031 = test system: K. pneumoniae ATCC 10031
# K. pneumoniae KPC-2 = test system: K. pneumoniae KPC-2
# K. pneumoniae SHV-12 = test system: K. pneumoniae SHV-12
# P. aeruginosa ATCC 27853 = test system: P. aeruginosa ATCC 27853
# [9] = test system: P. aeruginosa HPA101-1477
# [10] = test system: H. influenzae Erythro >4, Azithro 1; conditions: Haemophilus influenzae; read-out: MIC
# Excerpt: MIC data was collected for the novel macrolides that this platform has produced against over 21 unique strains of B. subtilis, E. coli, S. aureus, S. pneumoniae, and H. influenzae, including several multidrug-resistant strains, with a special focus on macrolide resistant mechanisms (vide supra). […] CLSI standard procedures for broth dilution MIC determination were used. […] These genotypes can be constitutive or inducible.
# [11] = Escherichia coli, ATCC25922, E. coli ATCC 25922 (MP-4), read-out: MIC
# [12] = Escherichia coli, CTXM14, read-out: MIC
# [13] = Escherichia coli, NDM1, read-out: MIC
# [14] = Haemophilus influenzae, read-out: MIC
# [15] = Klebsiella pneumoniae, TEM10, read-out: MIC
# [16] = Staphylococcus aureus, ATCC29213, S. aureus ATCC 29213 (MP-12), read-out: MIC
# [17] = Staphylococcus aureus, S. aureus MRSA: USA100 (MP-618 UNT-096), read-out: MIC
# [18] = Staphylococcus aureus, S. aureus MRSA: USA300 (MP-549, msr(a)), read-out: MIC
# [19] = Staphylococcus aureus, S. aureus USA600, GISA (MP-619 UNT-120), read-out: MIC
# [20] = Staphylococcus aureus, S. aureus erm A genotype (MP-620 UNT-146), read-out: MIC
# [21] = Streptococcus pneumoniae, ATCC49619, S. pneumoniae ATCC 49619 (MP-21), read-out: MIC
# [22] = Streptococcus pneumoniae, first strain (MP-626 UNT-038)
# [23] = Streptococcus pneumoniae, second strain (MP-627 UNT-039), read-out: MIC
# [24] = Streptococcus pyogenes, ATCC19615, S. pyogenes ATCC 19615 (MP-19), read-out: MIC
# [25] = Streptococcus pyogenes, S. pyogenes Macrolide-resistant (MP-625 UNT-014), read-out: MIC
# [26] = Enterococcus faecalis, ATCC29212, E. faecalis ATCC 29212 (MP-24), read-out: MIC
# [27] = Enterococcus faecalis, E. faecalis Vancomycin-resistant (UNT-039), read-out: MIC
# [28] = Acinetobacter baumannii, ATCC19606, A. baumannii ATCC 19606 (MP-15), read-out: MIC
# [29] = Acinetobacter baumannii, read-out: MIC
# [30] = Acinetobacter baumannii, IMP4, read-out: MIC
# [31] = Klebsiella pneumoniae, ATCC10031, K. pneumoniae ATCC 10031 (MP-14), read-out: MIC
# [32] = Klebsiella pneumoniae, KPC2, read-out: MIC
# [33] = Klebsiella pneumoniae, SHV12, read-out: MIC
# [34] = Pseudomonas aeruginosa, ATCC27853, P. aeruginosa ATCC 27853 (MP-3), read-out: MIC
# [35] = Pseudomonas aeruginosa, HPA1011477, read-out: MIC
smiles,measurement,setting,value
"CC[C@H]1OC(=O)[C@H](C)[C@@H](O[C@H]2C[C@@](C)(OC)[C@@H](O)[C@H](C)O2)[C@H](C)[C@@H](O[C@@H]2O[C@H](C)C[C@H](N(C)C)[C@H]2O)[C@](C)(O)C[C@@H](C)CN(C)[C@H](C)[C@@H](O)[C@]1(C)O [Azithro, azithromycin, reference compound]",MIC,"E. coli ATCC 25922; E. coli ATCC 25922, Gram-negative",4 mg/L
same,MIC,E. coli ATCC 25922; [11],4 mg/L
same,MIC,E. coli CTX-M-14; [12],> 32 mg/L
same,MIC,E. coli CTX-M-14; Gram-negative,> 32 mg/L
same,MIC,E. coli NDM-1; [13],> 32 mg/L
same,MIC,E. coli NDM-1; Gram-negative,> 32 mg/L
same,MIC,"E. coli TEM-1; E. coli TEM-1, Gram-negative",1 mg/L
same,MIC,"E. coli TEM-1; Escherichia coli, TEM1",1 mg/L
same,MIC,H. influenzae ATCC49247; Gram-negative,0.5 mg/L
same,MIC,H. influenzae ATCC49247; [14],0.5 mg/L
same,MIC,K. pneumoniae TEM-10; Gram-negative,8 mg/L
same,MIC,K. pneumoniae TEM-10; [15],8 mg/L
same,MIC,"S. aureus ATCC 29213; S. aureus ATCC 29213, Gram-positive",1 mg/L
same,MIC,S. aureus ATCC 29213; [16],1 mg/L
same,MIC,"S. aureus MRSA: USA100; S. aureus MRSA: USA100, Gram-positive",> 32 mg/L
same,MIC,S. aureus MRSA: USA100; [17],> 32 mg/L
same,MIC,"S. aureus MRSA: USA300; S. aureus MRSA: USA300, Gram-positive",32 mg/L
same,MIC,S. aureus MRSA: USA300; [18],32 mg/L
same,MIC,"S. aureus USA600, GISA; S. aureus USA600, GISA, Gram-positive",> 32 mg/L
same,MIC,"S. aureus USA600, GISA; [19]",> 32 mg/L
same,MIC,"S. aureus erm A genotype; S. aureus erm A genotype, Gram-positive",> 32 mg/L
same,MIC,S. aureus erm A genotype; [20],> 32 mg/L
same,MIC,"S. pneumoniae ATCC 49619; S. pneumoniae ATCC 49619, Gram-positive",< 0.0312 mg/L
same,MIC,S. pneumoniae ATCC 49619; [21],< 0.0312 mg/L
same,MIC,"[1]; S. pneumoniae erm B + mef A genotype, Gram-positive",> 32 mg/L
same,MIC,[1]; Streptococcus pneumoniae,> 32 mg/L
same,MIC,[2],< 0.0312 mg/L
same,MIC,[3]; [22],0.25 mg/L
same,MIC,"[3]; first of two rows so labelled, Gram-positive",0.25 mg/L
same,MIC,[4]; Gram-positive,4 mg/L
same,MIC,[4]; [23],4 mg/L
same,MIC,"S. pyogenes ATCC 19615; S. pyogenes ATCC 19615, Gram-positive",< 0.0312 mg/L
same,MIC,S. pyogenes ATCC 19615; [24],< 0.0312 mg/L
same,MIC,"[5]; S. pyogenes Macrolide-resistant, Gram-positive",2 mg/L
same,MIC,[5]; [25],2 mg/L
same,MIC,"E. faecalis ATCC 29212; E. faecalis ATCC 29212, Gram-positive",4 mg/L
same,MIC,E. faecalis ATCC 29212; [26],4 mg/L
same,MIC,"[6]; E. faecalis Vancomycin-resistant, Gram-positive",> 32 mg/L
same,MIC,[6]; [27],> 32 mg/L
same,MIC,"A. baumannii ATCC 19606; A. baumannii ATCC 19606, Gram-negative",16 mg/L
same,MIC,A. baumannii ATCC 19606; [28],16 mg/L
same,MIC,[7]; [29],8 mg/L
same,MIC,[7]; Gram-negative,8 mg/L
same,MIC,[8]; [29],32 mg/L
same,MIC,[8]; Gram-negative,32 mg/L
same,MIC,A. baumannii IMP-4; [30],> 32 mg/L
same,MIC,A. baumannii IMP-4; Gram-negative,> 32 mg/L
same,MIC,"K. pneumoniae ATCC 10031; K. pneumoniae ATCC 10031, Gram-negative",4 mg/L
same,MIC,K. pneumoniae ATCC 10031; [31],4 mg/L
same,MIC,K. pneumoniae KPC-2; Gram-negative,> 32 mg/L
same,MIC,K. pneumoniae KPC-2; [32],> 32 mg/L
same,MIC,K. pneumoniae SHV-12; Gram-negative,16 mg/L
same,MIC,K. pneumoniae SHV-12; [33],16 mg/L
same,MIC,"P. aeruginosa ATCC 27853; P. aeruginosa ATCC 27853, Gram-negative",> 32 mg/L
same,MIC,P. aeruginosa ATCC 27853; [34],> 32 mg/L
same,MIC,[9]; Gram-negative,> 32 mg/L
same,MIC,[9]; [35],> 32 mg/L
CC[C@H]1OC(=O)[C@H](C)C(=O)[C@H](C)[C@@H](O[C@@H]2OC(C)CC(N(C)C)C2O)[C@](C)(OC)C[C@@H](C)C(=O)C[C@H]2N(CCCCn3cc(-c4cccc(N)c4)nn3)C(=O)O[C@]12C (stereo partly drawn) [FSM-21535],MIC,E. coli ATCC 25922; [11],> 32 mg/L
same,MIC,E. coli CTX-M-14; [12],> 32 mg/L
same,MIC,E. coli NDM-1; [13],> 32 mg/L
same,MIC,"E. coli TEM-1; Escherichia coli, TEM1",> 32 mg/L
same,MIC,H. influenzae ATCC49247; [14],4 mg/L
same,MIC,K. pneumoniae TEM-10; [15],> 32 mg/L
same,MIC,S. aureus ATCC 29213; [16],16 mg/L
same,MIC,S. aureus MRSA: USA100; [17],> 32 mg/L
same,MIC,S. aureus MRSA: USA300; [18],32 mg/L
same,MIC,"S. aureus USA600, GISA; [19]",> 32 mg/L
same,MIC,S. aureus erm A genotype; [20],> 32 mg/L
same,MIC,S. pneumoniae ATCC 49619; [21],≤ 0.0312 mg/L
same,MIC,[1]; Streptococcus pneumoniae,8 mg/L
same,MIC,[2],≤ 0.0312 mg/L
same,MIC,[3]; [22],0.0625 mg/L
same,MIC,[4]; [23],0.5 mg/L
same,MIC,S. pyogenes ATCC 19615; [24],≤ 0.0312 mg/L
same,MIC,[5]; [25],0.5 mg/L
same,MIC,E. faecalis ATCC 29212; [26],≤ 0.0312 mg/L
same,MIC,[6]; [27],> 32 mg/L
same,MIC,A. baumannii ATCC 19606; [28],> 32 mg/L
same,MIC,[7]; [29],> 32 mg/L
same,MIC,[8]; [29],> 32 mg/L
same,MIC,A. baumannii IMP-4; [30],> 32 mg/L
same,MIC,K. pneumoniae ATCC 10031; [31],4 mg/L
same,MIC,K. pneumoniae KPC-2; [32],> 32 mg/L
same,MIC,K. pneumoniae SHV-12; [33],> 32 mg/L
same,MIC,P. aeruginosa ATCC 27853; [34],> 32 mg/L
same,MIC,[9]; [35],> 32 mg/L
same,MIC,[10],8 mg/L
